Earlier results on one compound are cited in patent EP0959130A1, “Cloning and expression of a new glucoamylase gene from endomyces fibuliger” (SOCIETE DES PRODUITS NESTLE S.A., priority 1998, dated 1999).

Broadly, the Km is the substrate concentration at which the rate is half of its maximum.

Data set [1] concerns Glucoamylase I from E.fibuliger IFO 0111. As to conditions: purified Glucoamylase I; from Futatsugi et al., 1993; read-out: Km for maltose.
For data set [2], the system named is Glucoamylase II from E.fibuliger IFO 0111. As to conditions: purified Glucoamylase II; from Futatsugi et al., 1993; read-out: Km for maltose.

Molecules are shown by their SMILES.

Take `OC[C@H]1O[C@H](O[C@H]2[C@H](O)[C@@H](O)C(O)O[C@@H]2CO)[C@H](O)[C@@H](O)[C@@H]1O` (mixture of isomers) [maltose]: the Km is 8.3 mM in data set [1] and 2.6 mM in data set [2].
